In paper PMC7432838, “A Curcumin Analog Exhibits Multiple Biologic Effects on the Pathogenesis of Alzheimer’s Disease and Improves Behavior, Inflammation, and β-Amyloid Accumulation in a Mouse Model” (International Journal of Molecular Sciences, 2020):
Several values for one entry are separate records, joined by “and”; a condition that tells them apart may be missing. Equal entries are not always repeated.

What was measured:
[1] = tested on: 3xTg AD transgenic mice; experiment: Morris water maze test in 3xTg AD transgenic mice; assay type: in vivo, mouse; conditions: 150 mg/kg/day in diet for four months; six-month-old 3xTg AD mice; vs vehicle control
Experimental: (§1) The triplex transgenic mouse model (3xTg-AD, APP Swedish, MAPT P301L, and PSEN1 M146V) was adopted as the AD model and bred at the laboratory animal center of National Cheng Kung University (NCKU), Tainan, Taiwan. The mice were housed in a room maintained on a 12 h light–dark cycle and fed ad libitum. Six-month old 3xTg-AD mice were used for animal experiments. Experimental procedures for handling the mice were in accordance with the guidelines of the Institutional Animal Care and Use Committee (IACUC) of NCKU. These mice develop plaques and tangles pathology. Aβ deposition is progressive, and deposition appears as early as nine months for triplex-Tg mice. The AD transgenic mice were fed with the control diet (Laboratory Rodent Diet 5001, LabDiet, St. Louis, MO, USA), the control diet plus traditional curcumin (150 mg/kg), or the control diet plus TML-6 (150 mg/kg) for four months. Diets were stored at 4 °C and were added to mouse cage twice a week. The quantity of the diet consumed by the mice was determined daily. The concentration of curcumin and TML-6 in the diet was determined to be around 1.20 mg/g of diet after assaying by HPLC by the Development Center for the Biotechnology (DCB), Taipei, Taiwan.
For assessing spatial learning and memory, the Morris water maze was used as we described before. […] The time taken to reach the platform was recorded as escape latency.

[2] = Brain penetration study in AD transgenic mice after oral dosing; assay type: in vivo, mouse; conditions: oral dose of 150 mg/kg
[3] = tested on: Iba-1 (microglial activation marker) in 3xTg AD mouse hippocampus; experiment: Immunofluorescence staining of Iba-1 in brain of 3xTg AD mice; assay type: in vivo; conditions: 150 mg/kg/day in diet for four months
Experimental: as §1, with “The AD transgenic mice were fed with the control diet (Laboratory Rodent Diet 5001, LabDiet, St. Louis, MO, USA), the control diet plus traditional curcumin (150 mg/kg), or the control diet plus TML-6 (150 mg/kg) for four months. Diets were stored at 4 °C and were added to mouse cage twice a week.” left out
(§2) Mice were anesthetized using pentobarbital (60 mg/kg, intravenous) and then transcardial perfusion was performed with 0.01 M PBS (pH 7.4). […] Images were captured by the TissureFAXS microscopy system and positive signals were quantified by TissueQuest software module (TissueGnostic, Vienne, Austria).

[4] = tested on: phospho-NF-κB in Huh-7 cells; experiment: Western blotting of phosphorylated NF-κB; assay type: cell-based, human; conditions: 1.96 µg/mL, 24 h, vs medium control
Experimental: (§3) After cells were seeded and treated with curcumin and TML-6 for 24 h, cells were washed with ice-cold PBS (Phosphate Buffered Saline) and lysed with 100 μL of RIPA cell lysis buffer (Pierce Biotechnology, Rockford, IL, USA) supplemented with protease and phosphatase inhibitors (Roche Diagnostics, Mannheim, Germany). Cell lysates were further cleaned by centrifugation at 14,000 rpm at 4 °C for 15 min. Protein concentration was determined using a Bradford assay (Bio-Rad, Hercules, CA, USA). For Western blot analysis, 20 μg of each sample was prepared for SDS-PAGE (SDS Poly-acrylamide-gel-electrophoresis) and denatured at 95 ℃ for 10 min. The samples prepared from total lysates were loaded and separated by SDS-PAGE (8% or 10%), and then transferred to PVDF membranes (pore size 0.45 μm; PerkinElmer, Waltham, MA, USA) by semi-dry transfer cell (Bio-Rad). After blocking with 5% skim milk in PBS-T (0.1% Tween-20), the membranes were hybridized with primary antibodies at 1/1000 dilution at 4 °C overnight. On the next day, membranes were washed with PBS-T followed by incubation with HRP-conjugated anti-mouse or anti-rabbit secondary antibody (DAKO, Santa Clara, CA, USA) at 1/5000 dilution at room temperature for 1 h as appropriate. […]

[5] = tested on: Apo E in Huh-7 cells; experiment: Western blotting of ApoE protein expression; assay type: cell-based, human; conditions: 2.62 µg/mL, 24 h, vs medium and curcumin control
Experimental: as §3

[6] = tested on: Nrf2 promoter in Huh-7 cells; experiment: Nrf2 promoter Dual-Luciferase reporter assay; assay type: cell-based, human
Experimental: To examine the activities of the anti-oxidative gene NrF2, Huh-7 cells were seeded in 24-well culture plates and then co-transfected with serial dilution of pG5-Nrf2-Luc (firefly luciferase) with the pRL-TK Renilla luciferase reporter. Following overnight incubation, the transfected cells were treated with traditional curcumin and TML-6 compounds for additional 24 h. The luciferase reporter assay was performed using the Dual-Luciferase Reporter assay system (Promega, Madison, WI, USA). The cell lysates were assayed for both firefly and Renilla luciferase activities. The relative luciferase units (RLU) were measured using a luminometer (GLOMAX Multi, Promega). Firefly luciferase activity was normalized for transfection efficiency using the Renilla luciferase activity in each lysate as the control. The RLUs are expressed as means plus standard deviation of three independent experiments.

[7] = tested on: Huh-7 cells; experiment: Cytotoxicity assay by Cell Counting Kit-8 (CCK-8); assay type: cell-based, human; conditions: Huh-7, 24 h, concentrations below 5 μM (2.61 µg/mL)
Experimental: (§4) The cytotoxicity assay was performed using the Cell Counting Kit-8 (CCK-8, Sigma). We dissolved 0.0524 g of TML-6 (molecular weight is 523.62 g/mol) in 10 mL DMSO to obtain TML-6 stock at 10 mM for cell line study. […] Briefly, Huh-7 cells were seeded overnight in 96-well plates at 5000 cells/well and then subjected to traditional curcumin or TML-6 treatment for 24 h. At each time point, a CCK-8 solution (0.25 mg/mL) was added to the medium in each well for an additional 4 h incubation, and absorbance was measured at 570 nm using an ELISA reader.

[8] = Cytotoxicity assay by Cell Counting Kit-8 (CCK-8); assay type: cell-based, human; conditions: human, Huh-7 cells; Huh-7, 24 h
Experimental: as §4

[9] = Pharmacokinetic study after oral administration in SD rats; assay type: in vivo, rat; conditions: male, Sprague-Dawley, rat, in vivo, po, 150 mg/kg
Experimental: In order to evaluate the bioavailability of curcumin and its analog TML-6, pharmacokinetic studies were commissioned and conducted by the Development Center for Biotechnology (DCB, Taipei, Taiwan). The kinetics of curcumin and TML-6 in blood were collected at 0.25, 0.5, 1, 2, 4, 6, 8 and 10 h after oral administration of curcumin and TML-6 at the dose of 150 mg/kg in male Sprague–Dawley Rats.

[10] = tested on: N2a/APPswe stable cells; experiment: Cell viability/morphology by micrographs during Aβ ELISA treatment; assay type: cell-based, mouse; conditions: 24 h
Experimental: (§5) Extracellular levels of soluble Aβ40 and Aβ42 were determined by LEGEND MAX™ β-Amyloid x-40 and X-42 ELISA Kit (Biolegend, San Diego, CA, USA). Overexpression of the APP Swedish mutation (APPswe) in the N2a neuronblastoma cell line was called the N2a/APPswe cell line. N2a/APPswe stable cells were seeded at 8 × 10^5 cells in 6 cm dishes. After overnight incubation, the cells were treated with curcumin and TML-6 for 24 h. […] The culture supernatant was collected and centrifuged at 1500× g at 4 °C for 5 min to remove cells. The culture supernatants from various treatments were conducted to examine the Aβ levels according to the manufacturer’s instructions. The samples for the detection of soluble Aβ levels were diluted in the supernatant at a 1:10 dilution for this experiment. Levels of soluble Aβ were detected by measuring the OD at 620 nm (Molecular Devices, San Jose, CA, USA). The calculation of Aβ levels was based on the standard curves of Aβ40 and Aβ42, respectively.

[11] = tested on: Aβ42 production in N2a/APPswe stable cells; experiment: Aβ42 ELISA of culture medium; assay type: cell-based, mouse; conditions: 3.14 µg/mL, 24 h, culture medium
Experimental: as §5

[12] = tested on: Aβ in 3xTg AD mouse brain; experiment: Immunofluorescence staining of Aβ in brain of 3xTg AD mice; assay type: in vivo; conditions: 150 mg/kg/day in diet for four months
Experimental: as §1, with “The AD transgenic mice were fed with the control diet (Laboratory Rodent Diet 5001, LabDiet, St. Louis, MO, USA), the control diet plus traditional curcumin (150 mg/kg), or the control diet plus TML-6 (150 mg/kg) for four months. Diets were stored at 4 °C and were added to mouse cage twice a week.” left out
as §2

[13] = tested on: phospho-mTOR in Huh-7 cells; experiment: Western blotting of phospho-mTOR; assay type: cell-based, human
Experimental: After cells were seeded and treated with curcumin and TML-6 for 24 h, cells were washed with ice-cold PBS (Phosphate Buffered Saline) and lysed with 100 μL of RIPA cell lysis buffer (Pierce Biotechnology, Rockford, IL, USA) supplemented with protease and phosphatase inhibitors (Roche Diagnostics, Mannheim, Germany). Cell lysates were further cleaned by centrifugation at 14,000 rpm at 4 °C for 15 min. Protein concentration was determined using a Bradford assay (Bio-Rad, Hercules, CA, USA). For Western blot analysis, 20 μg of each sample was prepared for SDS-PAGE (SDS Poly-acrylamide-gel-electrophoresis) and denatured at 95 ℃ for 10 min. The samples prepared from total lysates were loaded and separated by SDS-PAGE (8% or 10%), and then transferred to PVDF membranes (pore size 0.45 μm; PerkinElmer, Waltham, MA, USA) by semi-dry transfer cell (Bio-Rad). After blocking with 5% skim milk in PBS-T (0.1% Tween-20), the membranes were hybridized with primary antibodies at 1/1000 dilution at 4 °C overnight. On the next day, membranes were washed with PBS-T followed by incubation with HRP-conjugated anti-mouse or anti-rabbit secondary antibody (DAKO, Santa Clara, CA, USA) at 1/5000 dilution at room temperature for 1 h as appropriate. Finally, the images were captured by Amersham Imager 600 (GE Healthcare Life Sciences, Marlborough, MA, USA) after being developed using the chemiluminescent HRP substrate (Millipore, Bedford, MA, USA). The primary antibodies used in this study were anti-APP, anti-NF-κB (Cell Signaling Technology, Danvers, MA, USA), anti-Apo E, anti-p-mTOR (Abcam, Cambridge, MA, USA).

[14] = Brain penetration study in normal mice after oral dosing; assay type: in vivo; conditions: oral dose of 150 mg/kg, normal mouse brain
[15] = tested on: rat; experiment: Preliminary toxicological experiments in the rat model; assay type: in vivo; conditions: preliminary data
[16] = tested on: APP (amyloid precursor protein) in Huh-7 cells; experiment: Western blotting of APP protein expression; assay type: cell-based, human; conditions: 1.96 µg/mL, 24 h, vs medium control
Experimental: as §3

[17] = Water solubility (preformulation, preliminary studies); assay type: physicochemical; conditions: water, unformulated
Experimental: The active pharmaceutical ingredients of TML-6 were synthesized and physico-chemical properties were characterized by SinoPharm Pharmaceutical Company (SPT), Tainan, Taiwan. Preformulation studies on the solubility of TML-6 were conducted by Value Pharmaceutical Services (VPS) Company, Jiansu, China. All the data in this study were conducted using unformulated TML-6. Formulation to optimize the solubility and permeability of TML-6 is under development for toxicological studies.

[18] = tested on: Aβ40 production in N2a/APPswe stable cells; experiment: Aβ40 ELISA of culture medium; assay type: cell-based, mouse; conditions: 3.14 µg/mL, 24 h, culture medium
Experimental: as §5

CCN(CC)C(=O)CC(C)(C(=O)/C=C/c1ccc(OC)c(OC)c1)C(=O)/C=C/c1ccc(OC)c(OC)c1 [TML-6]
learning behavior in Morris water maze (in words) [1]: significantly improved hippocampus-dependent learning behavior | Kp ([2]; brain relative to plasma, AD transgenic mouse, read-out: brain level as % of the plasma pK levels): 0.1 | level detected in brain ([2]; AD transgenic mouse brain, preliminary): 3 ng/mL | suppression of Iba-1 expression in hippocampus vs vehicle control [3]: 50% | decrease of phosphorylated NF-κB level [4]: about 50% | induction of ApoE protein expression level [5]: approximately 44% | concentration of highest Nrf2 transcriptional activation ([6]; Huh-7, 24 h, luciferase reporter): 1.32 µg/mL | concentration beyond which cytotoxicity was found in Nrf2 promoter-transfected cells ([6]; Huh-7 transiently transfected with Nrf2 promoter): > 5.24 µg/mL | Nrf2 promoter activity, fold stronger than traditional curcumin at 10 µg/mL ([6]; TML-6 at 1.32 µg/mL vs curcumin 10 µg/mL, Huh-7, 24 h): 12.1 fold | Nrf2 promoter activity, fold stronger than traditional curcumin at 20 µg/mL ([6]; TML-6 at 1.32 µg/mL vs curcumin 20 µg/mL, Huh-7, 24 h): 6.6 fold | cytotoxicity (CCK-8) [7]: no cytotoxicity | IC50 at 24 h [8]: 4.19 µg/mL and 8 µM | Cmax [9]: 35.9 ± 15.6 ng/mL | MRT [9]: 3.91 ± 0.62 h | Tmax [9]: 3.67 ± 2.08 h | half-life [9]: 76.2 ± 30.6 min | AUC(0-t) ([9]; AUC(0-8)): 181 ± 78.7 ng·h/mL | AUC(0-t) ([9]; AUC(0-last)): 177 ± 76.8 ng·h/mL | highest dose, at which cytotoxicity was seen (micrographs) [10]: 4.19 µg/mL | Aβ42 level, reduced to % as compared with control group [11]: ~80% | reduction of Aβ expression in brain vs vehicle control [12]: 51% | phospho-mTOR suppression (Western blot, in words) ([13]; Huh-7, 24 h): suppressed in all the concentrations | potency of phospho-mTOR reduction relative to curcumin ([13]; TML-6 5.24 µg/mL gives same level as curcumin 20 µg/mL): about 4 fold | average reduction of phospho-mTOR ([13]; dose below IC50 (0.65~3.93 µg/mL), 24 h): about 30% | detection in brain [14]: could not be detected | toxicity in the rat model (in words) [15]: no obvious toxicity | reduction of APP protein expression level [16]: 60% | solubility [17]: < 100 µg/mL | Aβ40 level, reduced to % as compared with control group [18]: approximately 86%
